Results as given in patent publication US20200069775A1, “BRAIN OSTEOCALCIN RECEPTOR AND COGNITIVE DISORDERS” (The Trustees of Columbia University in the City of New York, priority 2017, published 2020).
Where no end group is shown, it is not given here.

Columns and labels:
[1] = tested on: neurons in WT brain sections (ventral tegmental area, substantia nigrae, raphe nuclei); assay: Binding of biotinylated osteocalcin to brain sections (anti-biotin immunofluorescence); design: species or system mouse
Method: Brains from 8-week-old mice were snap-frozen in isopentane, and […] thick sections were prepared and desiccated overnight at 4° C. under vacuum. On the following day, sections were rehydrated in ice-cold binding buffer (50 mM TrisHCl [pH 7.4], 10 mM MgCl2, 0.1 mM EDTA and 0.1% BSA) for 15 min and incubated for 1 hr in the presence of biotinylated osteocalcin (3, 30, 300, 3000 ng/ml) or biotynylated recombinant GST as a control (10 μg/ml). After washing in harvesting buffer (50 mM Tris-HCl, pH 7.4), samples were fixed in 4% paraformaldehyde for 15 min, washed in PBS and incubated with goat anti-biotin antibody (1:1000, Vector laboratories) over night at 4° C. Signal was visualized by incubating with anti-goat IgG Cy-3 using Leica DM 5000B microscope (Leica). The binding assays were perform on adjacent sections for each conditions tested. […] This was tested by incubating sections of adult or embryonic (E18.5) WT brains with biotinylated undercarboxylated osteocalcin or GST-biotin alone (30 μg/ml), followed by immunofluorescence analysis using an anti-biotin antibody.

[2] = biological target: T1, complex containing Gpr158 and the G[…]q subunit (Mus musculus, UniProt Q8C419); assay: Pull-down assay with biotinylated osteocalcin on solubilized hippocampal membranes; type: binding; conditions: solubilized membranes from hippocampal tissue
T1 construct: Pull-down assay using biotinylated-osteocalcin on solubilized Ocn−/− hippocampal membrane; from tissue; host or cells: hippocampi of Ocn-/- mice, membranes solubilized with n-octyl beta-D-thioglucopyranoside
T1 sequence (Q8C419 25-1200): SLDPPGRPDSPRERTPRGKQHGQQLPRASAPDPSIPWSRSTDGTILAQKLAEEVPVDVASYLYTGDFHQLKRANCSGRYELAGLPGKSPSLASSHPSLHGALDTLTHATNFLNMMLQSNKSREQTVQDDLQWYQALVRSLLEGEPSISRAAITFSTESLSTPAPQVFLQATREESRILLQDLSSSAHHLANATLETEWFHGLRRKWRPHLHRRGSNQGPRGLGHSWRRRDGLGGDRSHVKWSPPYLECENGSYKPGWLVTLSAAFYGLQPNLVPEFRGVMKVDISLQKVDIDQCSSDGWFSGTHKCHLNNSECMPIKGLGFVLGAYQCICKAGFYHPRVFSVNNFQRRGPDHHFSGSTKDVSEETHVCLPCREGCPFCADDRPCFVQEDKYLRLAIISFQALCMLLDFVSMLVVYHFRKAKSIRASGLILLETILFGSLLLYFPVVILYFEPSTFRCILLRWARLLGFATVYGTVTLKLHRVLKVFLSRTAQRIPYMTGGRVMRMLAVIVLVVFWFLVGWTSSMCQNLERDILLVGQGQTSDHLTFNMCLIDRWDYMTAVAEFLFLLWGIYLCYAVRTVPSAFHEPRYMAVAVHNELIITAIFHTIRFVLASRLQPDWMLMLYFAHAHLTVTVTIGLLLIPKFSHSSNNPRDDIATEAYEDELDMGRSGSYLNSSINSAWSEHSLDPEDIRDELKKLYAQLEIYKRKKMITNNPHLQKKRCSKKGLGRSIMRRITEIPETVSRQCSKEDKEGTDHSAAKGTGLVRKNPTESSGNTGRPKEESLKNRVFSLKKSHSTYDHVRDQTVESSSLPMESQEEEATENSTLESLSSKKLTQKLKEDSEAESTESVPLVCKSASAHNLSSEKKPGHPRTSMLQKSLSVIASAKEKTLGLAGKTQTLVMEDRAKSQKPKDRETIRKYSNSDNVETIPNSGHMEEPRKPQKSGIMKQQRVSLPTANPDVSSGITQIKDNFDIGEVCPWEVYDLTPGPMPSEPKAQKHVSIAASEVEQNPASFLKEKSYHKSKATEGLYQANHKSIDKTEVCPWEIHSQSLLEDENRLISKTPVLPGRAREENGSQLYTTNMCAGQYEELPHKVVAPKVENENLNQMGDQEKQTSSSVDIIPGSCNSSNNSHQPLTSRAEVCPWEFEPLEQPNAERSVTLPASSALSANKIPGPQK
T1 sequence (P21279 1-359 partner): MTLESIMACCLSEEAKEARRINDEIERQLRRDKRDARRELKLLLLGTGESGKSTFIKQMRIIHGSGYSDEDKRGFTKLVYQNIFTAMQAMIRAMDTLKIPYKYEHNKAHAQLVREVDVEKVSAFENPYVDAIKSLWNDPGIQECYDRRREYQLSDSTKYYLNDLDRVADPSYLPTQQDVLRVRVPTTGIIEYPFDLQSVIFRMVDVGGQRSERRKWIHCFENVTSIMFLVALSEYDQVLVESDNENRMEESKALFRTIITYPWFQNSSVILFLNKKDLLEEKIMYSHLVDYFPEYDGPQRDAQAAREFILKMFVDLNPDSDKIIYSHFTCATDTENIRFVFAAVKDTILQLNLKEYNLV
Method: For Western blotting, frozen hippocampi from adult mice were lysed and homogenized in 250 µl tissue lysis buffer (25 mM Tris HCl 7.5; 100 mM NaF; 10 mM Na4P2O7; 10 mmM EDTA; 1% NP 40). Proteins were transferred to nitrocellulose membranes, and blocked with TBST-5% BSA for 1 hour. Antibodies: anti-Runx2 M-70 sc-10758, Santa Cruz, anti-BDNF: sc-546, Santa Cruz; anti-tubulin: T6199, Sigma; anti-Gpr158 ABIN1535721, Assay Biotechnology; anti-Na,K ATPase 3010S Cell Signaling , were diluted (1:1000) in TBST-5% BSA and incubated overnight at 4° C. HRP-coupled secondary antibodies and ECL were used to visualize the signal. Western blot bands were quantified using ImageJ software. cAMP accumulation was measured in primary hippocampal neurons by using cAMP Parameter Assay Kit (R&D systems) and performed in primary hippocampal neurons (DIV15) following manufacturer instructions. For IP1 accumulation was determined in primary hippocampal neurons (DIV15) by using IP-One ELISA assay kit (Cisbio) following manufacturer instructions. […]
Streptavidin were added for 30 minutes at room temperature followed by PBS washes. […] For hormonal measurement; circulating levels of the carboxylated, undercarboxylated or uncarboxylated forms of osteocalcin were measured by ELISA. CTX content in serum (ng/ml) were measured with specific ELISAs (RatLaps™ (CTX-I) EIA (Immunodiagnosticsystems).

## biotinylated osteocalcin: biotin-labelled undercarboxylated osteocalcin used for binding and pull-down assays (YLGASVPSPDPLEPTREQCELNPACDELSDQYGLKTAYKRIYGITI; ends and bridges not checked; also: biotin label, attachment site not given here)
[1]; WT brain sections
  binding in the brainstem: bound to neurons of the raphe nuclei
  binding in the midbrain: bound to the ventral tegmental area and the substantia nigrae
[1]; adult or embryonic (E18.5) WT brain sections
  binding to neuronal populations in brain sections: bound to several neuronal populations in the forebrain, midbrain, and brainstem
[1]; excess of unlabeled osteocalcin or of GST
  specificity of binding in midbrain and brainstem (competition): specific since it was chased away by an excess of unlabeled osteocalcin but not by an excess of GST
[2]
  binding in pull-down assay: could bind a complex containing Gpr158 and the G[…]q subunit
